In US20230265116A1, “DEGRADATION OF (EGFR) BY CONJUGATION OF EGFR INHIBITORS WITH E3 LIGASE LIGAND AND METHODS OF USE” (BEIGENE, LTD., priority 2020, published 2023):

Biological target: T1, EGFR (HCC827 cells) (Homo sapiens, UniProt P00533, DEL746-750)
T1 construct: endogenous in cells; host or cells: HCC827
Experiment: EGFR degradation HTRF assay, HCC827 cells
Type: cell-based
Settings: HCC827, 16h treatment; for Dmax: maximum percentage of degradation
Description: BaF3 WT(wild type), BaF3-LTC(L858R/T790M/C797S) and BaF3-DTC(Del19/T790M/C797S) cells are treated with compounds diluted in 0.2% DMSO cell culture medium and incubate for 16h, 37° C., 5% CO2, H1975-#36, H1975-#28, H1975-#23 and HCC827 cells are treated with compounds diluted in 0.2% DMSO cell culture medium on day 2, incubate for 16h, 37° C., 5% CO2.the final concentriation of compounds in all assay is start with 10 uM, 5-fold dilution, total 8 doses were included.
After 16h treatment, add HTRF lysis buffer to each well; seal the plate and incubate 1 hour at room temperature on a plate shaker; Once the cells are lysed, 16 μL of cell lysate are transferred to a PE 384-well HTRF detection plate; 4 μL of pre-mixed HTRF antibodies are added to each well; Cover the plate with a plate sealer, spin 1000 rpm for 1 min, Incubate overnight at room temperature; Read on BMG PheraStar with HTRF protocol (337 nm-665 nm-620 nm).
The inhibition (degradation) percentage of the compound was calculated by the following equation: Inhibition percentage of Compound=100-100×(Signal-low control)/(High control-low control), wherein signal=each test compound group
High control=Cell group with added DMSO and without compound, indicating microplate readings without EGFR degradation;
Dmax is the maximum percentage of inhibition (degradation).
The IC50 (DC50) value of a compound can be obtained by fitting the following equation
Y=Bottom+(TOP−Bottom)/(1+((IC50/X)^hillslope))
Wherein, X and Y are known values, and IC50, Hillslope, Top and Bottom are the parameters obtained by fitting with software. Y is the inhibition percentage (calculated from the equation), X is the concentration of the compound; IC50 is the concentration of the compound when the 50% inhibition is reached. The smaller the IC50 value is, the stronger the inhibitory ability of the compound is. Vice versa, the higher the IC50 value is, the weaker the inhibitory ability of the compound is; Hillslope represents the slope of the fitted curve, generally around 1*; Bottom represents the minimum value of the curve obtained by data fitting, which is generally 0%±20%; Top represents the maximum value of the curve obtained by data fitting, which is generally 100%±20%. The experimental data were fitted by calculating and analyzing with Dotmatics data analysis software.

T1 sequence (P00533 with tags, fused parts or gaps DEL746-750): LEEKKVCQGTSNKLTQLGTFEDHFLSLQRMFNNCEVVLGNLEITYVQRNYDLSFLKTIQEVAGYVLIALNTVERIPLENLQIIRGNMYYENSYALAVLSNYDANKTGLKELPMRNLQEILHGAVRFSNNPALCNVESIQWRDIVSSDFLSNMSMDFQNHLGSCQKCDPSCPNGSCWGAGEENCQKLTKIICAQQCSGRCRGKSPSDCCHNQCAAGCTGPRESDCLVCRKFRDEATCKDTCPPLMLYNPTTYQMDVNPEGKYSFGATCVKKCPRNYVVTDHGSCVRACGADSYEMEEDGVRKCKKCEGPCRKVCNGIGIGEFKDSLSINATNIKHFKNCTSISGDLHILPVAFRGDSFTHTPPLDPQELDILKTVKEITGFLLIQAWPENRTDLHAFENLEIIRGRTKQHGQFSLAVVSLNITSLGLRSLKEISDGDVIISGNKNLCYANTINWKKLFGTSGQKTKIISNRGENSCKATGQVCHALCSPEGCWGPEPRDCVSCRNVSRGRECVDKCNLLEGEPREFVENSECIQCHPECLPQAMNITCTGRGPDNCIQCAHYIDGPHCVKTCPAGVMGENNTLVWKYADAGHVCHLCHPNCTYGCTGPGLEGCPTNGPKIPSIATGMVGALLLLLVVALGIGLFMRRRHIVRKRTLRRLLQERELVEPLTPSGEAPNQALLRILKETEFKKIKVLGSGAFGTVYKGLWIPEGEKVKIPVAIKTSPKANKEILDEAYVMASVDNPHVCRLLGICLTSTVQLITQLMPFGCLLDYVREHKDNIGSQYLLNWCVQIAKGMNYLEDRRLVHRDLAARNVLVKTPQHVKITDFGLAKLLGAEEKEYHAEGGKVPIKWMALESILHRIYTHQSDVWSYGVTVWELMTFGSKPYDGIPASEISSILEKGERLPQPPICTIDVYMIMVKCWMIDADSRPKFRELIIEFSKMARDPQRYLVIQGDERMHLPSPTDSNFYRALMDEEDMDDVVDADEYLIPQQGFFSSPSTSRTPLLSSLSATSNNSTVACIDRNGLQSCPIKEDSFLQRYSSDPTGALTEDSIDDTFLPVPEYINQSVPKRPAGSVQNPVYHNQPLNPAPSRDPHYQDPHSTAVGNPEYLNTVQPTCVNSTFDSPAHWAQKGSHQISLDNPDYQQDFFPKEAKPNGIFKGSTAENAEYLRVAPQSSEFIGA

Row | DC50 | Dmax | SMILES
1 | 15.4 nM | 77.5% | CCc1cc(Nc2ncc(Br)c(Nc3ccc4nccnc4c3P(C)(C)=O)n2)c(OC)cc1N1CCC(N2CCN(CCCOc3ccc(C4CCC(=O)NC4=O)cc3)CC2)CC1 (stereo not shown) [Example 18, 3-(4-(3-(4-(1-(4-((5-bromo-4-((5-(dimethylphosphoryl)quinoxalin-6-yl)amino)pyrimidin-2-yl)amino)-2-ethyl-5-methoxyphenyl)piperidin-4-yl)piperazin-1-yl)propoxy)phenyl)piperidine-2,6-dione]
2 | 39.1 nM | 78.2% | COc1cc(N2CCN(CCc3ccc(C4CCC(=O)NC4=O)cc3)CC2)ccc1Nc1ncc(Cl)c(Nc2ccccc2N(C)S(C)(=O)=O)n1 (stereo not shown) [Example 133, N-(2-((5-chloro-2-((4-(4-(4-(2,6-dioxopiperidin-3-yl)phenethyl)piperazin-1-yl)-2-methoxyphenyl)amino)pyrimidin-4-yl)amino)phenyl)-N-methylmethanesulfonamide]
3 | 9.41 nM | 92.5% | CN(c1ccccc1Nc1nc(Nc2ccc(N3CC4(CN(C(=O)C5CCN(CC6CCN(c7ccc8c(c7)C(=O)N(C7CCC(=O)NC7=O)C8=O)CC6)CC5)C4)C3)c(F)c2)ncc1Cl)S(C)(=O)=O (stereo not shown) [Example 137, N-(2-((5-chloro-2-((4-(6-(1-((1-(2-(2,6-dioxopiperidin-3-yl)-1,3-dioxoisoindolin-5-yl)piperidin-4-yl)methyl)piperidine-4-carbonyl)-2,6-diazaspiro[3.3]heptan-2-yl)-3-fluorophenyl)amino)pyrimidin-4-yl)amino)phenyl)-N-methylmethanesulfonamide]
4 | 19.2 nM | 82% | COc1cc(N2CCC(N3CCN(C(=O)CCCCN4CCN(c5ccc6c(c5)C(=O)N(C5CCC(=O)NC5=O)C6=O)CC4)CC3)CC2)ccc1Nc1ncc(Cl)c(Nc2ccccc2NS(C)(=O)=O)n1 (stereo not shown) [Example 141, N-(2-((5-chloro-2-((4-(4-(4-(5-(4-(2-(2,6-dioxopiperidin-3-yl)-1,3-dioxoisoindolin-5-yl)piperazin-1-yl)pentanoyl)piperazin-1-yl)piperidin-1-yl)-2-methoxyphenyl)amino)pyrimidin-4-yl)amino)phenyl)methanesulfonamide]
5 | 130 nM | 72.4% | COc1cc(N2CCN(CCc3ccc(OC4CCC(=O)NC4=O)cc3)CC2)c(C)cc1Nc1ncc(Br)c(Nc2ccc3nccnc3c2P(C)(C)=O)n1 (stereo not shown) [Example 93, 3-(4-(2-(4-(4-((5-bromo-4-((5-(dimethylphosphoryl)quinoxalin-6-yl)amino)pyrimidin-2-yl)amino)-5-methoxy-2-methylphenyl)piperazin-1-yl)ethyl)phenoxy)piperidine-2,6-dione]

More lines, now with the values behind:

Row | SMILES | DC50 | Dmax
6 | COc1cc(N2CCN(CCc3ccc(C4CCC(=O)NC4=O)cn3)CC2)c(C)cc1Nc1ncc(Br)c(Nc2ccc3nccnc3c2P(C)(C)=O)n1 (stereo not shown) [Example 87, 3-(6-(2-(4-(4-((5-bromo-4-((5-(dimethylphosphoryl)quinoxalin-6-yl)amino)pyrimidin-2-yl)amino)-5-methoxy-2-methylphenyl)piperazin-1-yl)ethyl)pyridin-3-yl)piperidine-2,6-dione] | 57.5 nM | 86.2%
7 | COc1cc(N2CCN(CCC3CCN(c4ccc(N5CCC(=O)NC5=O)cc4)CC3)CC2)c(C)cc1Nc1ncc(Br)c(Nc2ccc3nccnc3c2P(C)(C)=O)n1 [Example 94, 1-(4-(4-(2-(4-(4-((5-bromo-4-((5-(dimethylphosphoryl)quinoxalin-6-yl)amino)pyrimidin-2-yl)amino)-5-methoxy-2-methylphenyl)piperazin-1-yl)ethyl)piperidin-1-yl)phenyl)dihydropyrimidine-2,4(1H,3H)-dione] | 32.2 nM | 58.5%
8 | COc1cc(N2CCC(N3CCN(CCc4ccc(NC5CCC(=O)NC5=O)cc4)CC3)CC2)ccc1Nc1ncc(Cl)c(Nc2ccccc2P(C)(C)=O)n1 (stereo not shown) [Example 108] | 16.6 nM | 82.2%
9 | COc1cc(N2CCN(CCc3ccc(C4CCC(=O)NC4=O)cc3)CC2)c(C)cc1Nc1ncc(Br)c(Nc2ccc3nccnc3c2P(C)(C)=O)n1 (stereo not shown) [Example 86, 3-(4-(2-(4-(4-((5-bromo-4-((5-(dimethylphosphoryl)quinoxalin-6-yl)amino)pyrimidin-2-yl)amino)-5-methoxy-2-methylphenyl)piperazin-1-yl)ethyl)phenyl)piperidine-2,6-dione] | 66.7 nM | 81%
10 | COc1cc(N2CCC(N3CCN(CCC4CCN(c5ccc(N6CCC(=O)NC6=O)cc5)CC4)CC3)CC2)ccc1Nc1ncc(Cl)c(Nc2ccccc2NS(C)(=O)=O)n1 [Example 139, N-(2-((5-chloro-2-((4-(4-(4-(2-(1-(4-(2,4-dioxotetrahydropyrimidin-1(2H)-yl)phenyl)piperidin-4-yl)ethyl)piperazin-1-yl)piperidin-1-yl)-2-methoxyphenyl)amino)pyrimidin-4-yl)amino)phenyl) methanesulfonamide] | 53.6 nM | 75.7%
11 | COc1cc(N2CCC(NCCCCCCCc3ccc(C4CCC(=O)NC4=O)cc3)CC2)ccc1Nc1ncc(Cl)c(Nc2ccccc2N(C)S(C)(=O)=O)n1 (stereo not shown) [Example 132, N-(2-((5-chloro-2-((4-(4-((7-(4-(2,6-dioxopiperidin-3-yl)phenyl)heptyl)amino)piperidin-1-yl)-2-methoxyphenyl)amino)pyrimidin-4-yl)amino)phenyl)-N-methylmethanesulfonamide] | 34 nM | 80%
12 | COc1cc(N2CCC(N3CCN(CCc4ccc(N5CCC(=O)NC5=O)cc4)CC3)CC2)ccc1Nc1ncc(Cl)c(Nc2ccccc2N(C)S(C)(=O)=O)n1 [Example 124, N-(2-((5-chloro-2-((4-(4-(4-(4-(2,4-dioxotetrahydropyrimidin-1(2H)-yl)phenethyl)piperazin-1-yl)piperidin-1-yl)-2-methoxyphenyl)amino)pyrimidin-4-yl)amino)phenyl)-N-methylmethanesulfonamide] | 81.6 nM | 80.8%
13 | COc1cc(N2CCC(N3CCN(CCc4ccc(CN5CCC(=O)NC5=O)cc4)CC3)CC2)ccc1Nc1ncc(Cl)c(Nc2ccccc2P(C)(C)=O)n1 [Example 111, 1-(4-(2-(4-(1-(4-((5-chloro-4-((2-(dimethylphosphoryl)phenyl)amino)pyrimidin-2-yl)amino)-3-methoxyphenyl)piperidin-4-yl)piperazin-1-yl)ethyl)benzyl)dihydropyrimidine-2,4(1H,3H)-dione] | 112 nM | 81.1%
14 | CN(c1ccccc1Nc1nc(Nc2ccc(N3CC4(CN(CCc5ccc(C6CCC(=O)NC6=O)cc5)C4)C3)c(F)c2)ncc1Cl)S(C)(=O)=O (stereo not shown) [Example 134, N-(2-((5-chloro-2-((4-(6-(4-(2,6-dioxopiperidin-3-yl)phenethyl)-2,6-diazaspiro[3.3]heptan-2-yl)-3-fluorophenyl)amino)pyrimidin-4-yl)amino)phenyl)-N-methylmethanesulfonamide] | 38 nM | 77.6%
15 | COc1cc(N2CCC(N3CCN(C(=O)C4CCN(CC5CCN(c6ccc7c(c6)C(=O)N(C6CCC(=O)NC6=O)C7=O)CC5)CC4)CC3)CC2)ccc1Nc1ncc(Cl)c(Nc2ccccc2NS(C)(=O)=O)n1 (stereo not shown) [Example 142, N-(2-((5-chloro-2-((4-(4-(4-(1-((1-(2-(2,6-dioxopiperidin-3-yl)-1,3-dioxoisoindolin-5-yl)piperidin-4-yl)methyl)piperidine-4-carbonyl)piperazin-1-yl)piperidin-1-yl)-2-methoxyphenyl)amino)pyrimidin-4-yl)amino)phenyl)methanesulfonamide] | 6.22 nM | 89.4%
16 | COc1cc(N2CCC(N3CCN(C(=O)CC4CCN(c5ccc(C6CCC(=O)NC6=O)cc5)CC4)CC3)CC2)ccc1Nc1ncc(Cl)c(Nc2ccccc2P(C)(C)=O)n1 (stereo not shown) [Example 107, 3-(4-(4-(2-(4-(1-(4-((5-chloro-4-((2-(dimethylphosphoryl)phenyl)amino)pyrimidin-2-yl)amino)-3-methoxyphenyl)piperidin-4-yl)piperazin-1-yl)-2-oxoethyl)piperidin-1-yl)phenyl)piperidine-2,6-dione] | 17.2 nM | 79.3%
17 | CCc1cc(Nc2ncc(Br)c(Nc3ccc4nccnc4c3P(C)(C)=O)n2)c(OC)cc1N1CCC(N2CCN(C(=O)CCCCN3CCN(c4ccc5c(c4)C(=O)N(C4CCC(=O)NC4=O)C5=O)CC3)CC2)CC1 (stereo not shown) [Example 62, 5-(4-(5-(4-(1-(4-((5-bromo-4-((5-(dimethylphosphoryl)quinoxalin-6-yl)amino)pyrimidin-2-yl)amino)-2-ethyl-5-methoxyphenyl)piperidin-4-yl)piperazin-1-yl)-5-oxopentyl)piperazin-1-yl)-2-(2,6-dioxopiperidin-3-yl)isoindoline-1,3-dione] | 6.24 nM | 83.7%
